Measurements published in patent US20230302142A1, “Cytotoxic Agents” (priority 2020, published 2023).

Columns and labels:
[1] = tested on: SW-48 (Colorectal); assay: MTT cytotoxicity assay, SW-48; format: cell-based; conditions: Homo sapiens, SW48, 72 hour incubation
Procedure: (§1) The in vitro cytotoxicity of compounds 16 and 22 were evaluated in a panel of cell lines using the standard MTT assay for a 72 hour incubation period (Table 2). Free payloads produced cytotoxicities in the nanomolar to picomolar range.
(§2) Tumor cell lines were maintained in RPMI1640 medium supplemented with 10% heat-inactivated fetal bovine serum, 2 mM L-glutamine and 1 mM sodium pyruvate. 1800 cells per well were seeded in a volume of 180 μl in a 96-well flat bottom polystyrene plate. The cells were allowed to adhere overnight at 37° C. in a CO2 incubator. Ligands were initially formulated in DMSO, and stocks stored at −80° C. They were then further formulated at lox concentration in RPMI1640 medium. 20 ul of diluted samples were added into each treatment well. On each plate, blank wells with no cells, and untreated wells containing cells, were included. […] Cytotoxicity was evaluated using a tetrazolium salt-based assay, the MTT assay. […] The plate was then read on a plate reader at 540 nm, and percentage cell survival calculated as follows: ((mean absorbance treated wells at concentration x−mean absorbance blank wells)÷(mean absorbance untreated wells at concentration x−mean absorbance blank wells))×100. Data were plotted as concentration in nM vs. % cell survival in Microsoft Excel, and IC50 values (concentration where cell survival is reduced by a half) were determined from the graph.

[2] = tested on: LIM1215 (Colorectal); assay: MTT cytotoxicity assay, LIM1215; format: cell-based; conditions: for IC50: LIM1215, MTT assay, 72 hour incubation, HIF1 negative cell-line
Procedure: as §1
Tumor cell lines were maintained in RPMI1640 medium supplemented with 10% heat-inactivated fetal bovine serum, 2 mM L-glutamine and 1 mM sodium pyruvate. 1800 cells per well were seeded in a volume of 180 μl in a 96-well flat bottom polystyrene plate. The cells were allowed to adhere overnight at 37° C. in a CO2 incubator. Ligands were initially formulated in DMSO, and stocks stored at −80° C. They were then further formulated at lox concentration in RPMI1640 medium. 20 ul of diluted samples were added into each treatment well. On each plate, blank wells with no cells, and untreated wells containing cells, were included. Plates were then cultured at 37° C. in a CO2 incubator for 72 hrs. Cytotoxicity was evaluated using a tetrazolium salt-based assay, the MTT assay. After 72 hours, the supernatant was removed from each well and 200 μl of a sterile filtered 500 μg/ml MTT solution in water added to each well. The plates were then incubated at 37° C. in a CO2 incubator for 4 hrs. The supernatant was then removed and the formazan crystals formed solubilized by adding 150 μl of DMSO to each well. The plate was then read on a plate reader at 540 nm, and percentage cell survival calculated as follows: ((mean absorbance treated wells at concentration x−mean absorbance blank wells)÷(mean absorbance untreated wells at concentration x−mean absorbance blank wells))×100. Data were plotted as concentration in nM vs. % cell survival in Microsoft Excel, and IC50 values (concentration where cell survival is reduced by a half) were determined from the graph.

[3] = tested on: SW620 (Colorectal); assay: MTT cytotoxicity assay, SW620; format: cell-based; conditions: Homo sapiens, SW-620, 72 hour incubation
Procedure: as §1, §2

[4] = tested on: U138-MG (Glioblastoma) HIF++; assay: MTT cytotoxicity assay, U138-MG; format: cell-based; conditions: Homo sapiens, 72 hour incubation
Procedure: as §1, §2

[5] = tested on: A431 (Skin) HIF+; assay: MTT cytotoxicity assay, A431; format: cell-based; conditions: Homo sapiens, A-431, 72 hour incubation
Procedure: as §1, §2

[6] = tested on: MS1 DNA fragment; assay: DNA footprinting (DNase I); format: binding
Procedure: The DNA sequence selectivity profile of 16 was investigated using a modification of the previously established DNA footprinting assay. Following an overnight incubation of the ligand-DNA complexes, the mixture was mixed with strand separation buffer containing 10 mM EDTA, 10 mM NaOH, 0.1% bromophenol blue, 80% formamide and incubated at 100° C. for 3 min. The mixture was then immediately cooled on ice and run on an 8% denaturing gel. […] This is in contrast to control molecules (FIG. 2), where indiscriminate binding to the DNA sequence can be observed.
Methods for the preparation of the “MS1” DNA fragment (FIG. 2) have been previously described^[19]. Briefly, the sequence which had been cloned into the BamHI site of pUC18 was obtained by cutting with HindIII and EcoRI. Radiolabelled DNA fragments were prepared by filling in the 3′-end of the HindIII site with [α-^32P]dATP using Klenow DNA polymerase (exo-).
The radiolabelled DNA fragment was separated from the remainder of the plasmid DNA on a 6% non-denaturing polyacrylamide gel. […]
Footprinting reactions were performed as previously described^[20] using the “MS1” DNA fragment, which represents a random DNA sequence. […] After gel purification, the radiolabelled DNA was dissolved in 10 mM Tris HCl pH 7.5 containing 0.1 mM EDTA, at a concentration of about 10 c.p.s per μL as determined on a hand held Geiger counter. […]

[7] = tested on: transcription factors; assay: Transcription factor plate array assay; format: cell-based; conditions: HeLa cells, 100 nM, 6 hours
Procedure: The transcription factor plate array assay kit was obtained from Signosis Inc (USA). Briefly, 2×10^6 HeLa cells were treated with 100 nM 16 and incubated for 6 hours before extracting the nuclear protein and carrying out the TF plate array assay. The assay was carried out following the manufacturer's protocol. In the case of each transcription factor, the RLU value obtained for the cells treated with 16 was deducted from the respective values obtained for the untreated cells to obtain the differences in TF activation/inhibition.

Compound	IC50 [1]	IC50 [2]	IC50 [3]	IC50 [4]	IC50 [5]	preferred binding site (sequence motif) ([6]; R is preferably a G or C, X is any base)	DNA footprint / binding pattern on the MS1 DNA sequence ([6]; overnight incubation of ligand-DNA complexes)	major transcription factors down-regulated [7]	potency relative to 16 ([2]; HIF1 negative cell-line LIM1215)
COc1cc2c(cc1OCCCC(=O)Nc1cc(C(=O)Nc3ccc(-c4cc(C)c(C(=O)Nc5ccccc5)s4)nc3)n(C)c1)N=C[C@@H]1CCCCN1C2=O [Compound 16, (S)-4-(4-((2-Methoxy-12-oxo-6a,7,8,9,10,12-hexahydrobenzo[e]pyrido[1,2-a] [1,4]diazepin-3-yl)oxy)butanamido)-1-methyl-N-(6-(4-methyl-5-(phenyl-carbamoyl)thiophen-2-yl)pyridin-3-yl)-1H-pyrrole-2-carboxamide]	0.142 nM	1.6 nM	0.302 nM	0.261 nM	0.029 nM	XRXXRRXX	only two preferred sites were observed	HIF1 (hypoxia-inducible factor 1), NF-1 (Neurofibromatosis type 1), FOXG1 and NF-κB	
COc1cc2c(cc1OCCCC(=O)Nc1cc(C(=O)Nc3ccc(-c4cc(C(=O)Nc5ccccc5)n(C)c4)cc3)n(C)c1)N=C[C@@H]1CCCCN1C2=O [Compound 22, (S)-4-(4-((2-Methoxy-12-oxo-6a,7,8,9,10,12-hexahydrobenzo[e]pyrido[1,2-a][1,4]diazepin-3-yl)oxy)butanamido)-1-methyl-N-(4-(1-methyl-5-(phenylcarbamoyl)-1H-pyrrol-3-yl)phenyl)-1H-pyrrole-2-carboxamide]	0.093 nM	0.899 nM	0.291 nM	1.62 nM	0.055 nM				two-fold more potent than 16
